Measured values as given in patent publication US20100168125A1, “INDOLIZINES AND AZA-ANALOG DERIVATIVES THEREOF AS CNS ACTIVE COMPOUNDS” (priority 2007, published 2010).
Like-named read-outs stand apart in the source and are kept apart here.

Experiments:
human D4.4 receptor = biological target: T1, human D4.4 receptor (Homo sapiens, UniProt P21917); test: radioligand binding with [^3H]spiperone, D4.4; conditions: [^3H]spiperone, CHO membranes, mean of 2 to 4 experiments
T1 construct: expressed in transfected cells; host or cells: Chinese hamster ovary (CHO) cells, membranes
T1 sequence (P21917 1-419): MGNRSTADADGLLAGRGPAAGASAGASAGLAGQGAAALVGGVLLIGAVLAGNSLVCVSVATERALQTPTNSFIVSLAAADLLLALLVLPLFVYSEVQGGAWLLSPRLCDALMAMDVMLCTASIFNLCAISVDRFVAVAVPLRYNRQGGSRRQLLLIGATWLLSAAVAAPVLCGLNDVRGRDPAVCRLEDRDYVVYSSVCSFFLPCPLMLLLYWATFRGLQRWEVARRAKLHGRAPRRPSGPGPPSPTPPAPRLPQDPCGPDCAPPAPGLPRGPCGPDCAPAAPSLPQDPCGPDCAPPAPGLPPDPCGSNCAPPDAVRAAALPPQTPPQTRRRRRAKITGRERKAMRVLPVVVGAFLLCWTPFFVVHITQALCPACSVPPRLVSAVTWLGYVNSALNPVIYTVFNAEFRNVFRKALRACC
Experimental: (§1) For the determination of binding affinity to the receptors of the dopamine D2 family membranes were established carrying the human D2long, D2short, D3 or D4.4 receptor subtype expressed in Chinese hamster ovary cell lines. In principle, the binding experiments started when incubating an appropriate amount of membrane with the radioligand [^3H]spiperone and the particular test compounds diluted in a wide range of different concentrations from subnanomolar up to micromolar.

human D3 receptor = biological target: T2, human D3 receptor (Homo sapiens, UniProt P35462); test: radioligand binding with [^3H]spiperone, D3; conditions: [^3H]spiperone, CHO membranes, mean of 2 to 4 experiments
T2 construct: expressed in transfected cells; host or cells: Chinese hamster ovary (CHO) cells, membranes
Experimental: as §1

human D2long receptor = biological target: T3, human D2long receptor (Homo sapiens, UniProt P14416); test: radioligand binding with [^3H]spiperone, D2long; conditions: [^3H]spiperone, CHO membranes, mean of 2 to 4 experiments; read-out: Ki D2lo
T3 construct: expressed in transfected cells; host or cells: Chinese hamster ovary (CHO) cells, membranes
Experimental: as §1

5-HT2 receptor = biological target: T4, 5-HT2 receptor (Sus scrofa, UniProt P50129); test: radioligand binding, porcine cortical membranes, [^3H]ketanserin; conditions: porcine cortical membranes, [^3H]ketanserin
T4 construct: membrane preparations from porcine cortical material; from tissue; host or cells: porcine cerebral cortex membranes

[1] = biological target: dopamine D2short receptor (Homo sapiens, UniProt P14416); test: [^35S]GTPγS-incorporation assay, intrinsic activity
human D2short receptor = biological target: T5, human D2short receptor (Homo sapiens, UniProt P14416); test: radioligand binding with [^3H]spiperone, D2short; conditions: [^3H]spiperone, CHO membranes, mean of 2 to 4 experiments; read-out: Ki D2sh
T5 construct: expressed in transfected cells; host or cells: Chinese hamster ovary (CHO) cells, membranes
Experimental: as §1

5-HT1A receptor = biological target: T6, 5-HT1A receptor (Sus scrofa, UniProt A0A4X1UTF5); test: radioligand binding, porcine cortical membranes, [^3H]8-OH-DPAT and [^3H]WAY 100635; conditions: porcine cortical membranes
T6 construct: membrane preparations from porcine cortical material; from tissue; host or cells: porcine cerebral cortex membranes
T6 sequence (A0A4X1UTF5 1-422): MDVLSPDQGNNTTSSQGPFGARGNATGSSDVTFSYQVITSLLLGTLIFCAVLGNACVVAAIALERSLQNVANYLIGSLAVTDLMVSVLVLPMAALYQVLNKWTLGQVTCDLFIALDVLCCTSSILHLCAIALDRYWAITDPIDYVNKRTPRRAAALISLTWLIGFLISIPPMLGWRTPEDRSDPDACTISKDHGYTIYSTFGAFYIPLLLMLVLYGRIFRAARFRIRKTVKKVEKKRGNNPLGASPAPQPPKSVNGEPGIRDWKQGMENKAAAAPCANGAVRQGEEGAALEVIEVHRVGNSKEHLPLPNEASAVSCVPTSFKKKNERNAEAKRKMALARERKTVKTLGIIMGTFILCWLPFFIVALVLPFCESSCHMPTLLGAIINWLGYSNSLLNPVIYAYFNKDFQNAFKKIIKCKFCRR

[2] = read-out: D2short: [^35S]GTPγS intrinsic activity, % activity of quinpirol

Sequence of dopamine D2short receptor (P14416 1-414 isoform P14416-2): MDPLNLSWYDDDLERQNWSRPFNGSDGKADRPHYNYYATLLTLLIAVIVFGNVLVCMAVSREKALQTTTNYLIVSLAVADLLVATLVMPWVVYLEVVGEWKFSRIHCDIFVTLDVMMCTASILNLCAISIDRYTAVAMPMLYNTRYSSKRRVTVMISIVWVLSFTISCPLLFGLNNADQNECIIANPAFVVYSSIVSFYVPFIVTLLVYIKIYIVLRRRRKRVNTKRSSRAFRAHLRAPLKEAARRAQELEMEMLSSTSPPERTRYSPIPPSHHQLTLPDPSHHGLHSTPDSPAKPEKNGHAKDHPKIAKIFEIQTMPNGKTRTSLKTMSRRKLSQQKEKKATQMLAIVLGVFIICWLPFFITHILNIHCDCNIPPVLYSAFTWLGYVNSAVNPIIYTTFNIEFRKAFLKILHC
T5 sequence (P14416 1-414 isoform P14416-2): as above
T3 sequence (P14416 whole entry): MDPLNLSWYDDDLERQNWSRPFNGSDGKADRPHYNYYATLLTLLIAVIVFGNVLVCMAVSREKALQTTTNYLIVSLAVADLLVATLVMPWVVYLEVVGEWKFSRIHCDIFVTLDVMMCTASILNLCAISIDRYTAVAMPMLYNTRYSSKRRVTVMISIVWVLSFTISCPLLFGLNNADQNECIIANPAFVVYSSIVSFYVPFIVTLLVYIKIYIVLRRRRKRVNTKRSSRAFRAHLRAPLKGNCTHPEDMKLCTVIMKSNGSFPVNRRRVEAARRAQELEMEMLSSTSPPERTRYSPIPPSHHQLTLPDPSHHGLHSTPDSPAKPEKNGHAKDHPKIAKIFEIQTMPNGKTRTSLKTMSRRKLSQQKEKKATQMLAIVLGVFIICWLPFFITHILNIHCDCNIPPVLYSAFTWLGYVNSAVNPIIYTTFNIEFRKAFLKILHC
T4 sequence (P50129 whole entry): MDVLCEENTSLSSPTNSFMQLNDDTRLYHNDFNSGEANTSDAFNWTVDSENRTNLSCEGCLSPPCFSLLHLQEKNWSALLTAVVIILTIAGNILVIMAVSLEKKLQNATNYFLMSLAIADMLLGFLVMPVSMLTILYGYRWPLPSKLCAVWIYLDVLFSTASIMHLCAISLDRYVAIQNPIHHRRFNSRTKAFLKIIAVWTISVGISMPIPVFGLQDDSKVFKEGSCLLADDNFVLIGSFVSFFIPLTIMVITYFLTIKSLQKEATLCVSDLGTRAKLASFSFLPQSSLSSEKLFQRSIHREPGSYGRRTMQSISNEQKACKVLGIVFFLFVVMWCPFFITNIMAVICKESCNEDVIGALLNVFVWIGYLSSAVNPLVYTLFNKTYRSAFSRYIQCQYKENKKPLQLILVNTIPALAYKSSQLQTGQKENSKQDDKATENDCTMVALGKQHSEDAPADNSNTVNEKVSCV
T2 sequence (P35462 whole entry): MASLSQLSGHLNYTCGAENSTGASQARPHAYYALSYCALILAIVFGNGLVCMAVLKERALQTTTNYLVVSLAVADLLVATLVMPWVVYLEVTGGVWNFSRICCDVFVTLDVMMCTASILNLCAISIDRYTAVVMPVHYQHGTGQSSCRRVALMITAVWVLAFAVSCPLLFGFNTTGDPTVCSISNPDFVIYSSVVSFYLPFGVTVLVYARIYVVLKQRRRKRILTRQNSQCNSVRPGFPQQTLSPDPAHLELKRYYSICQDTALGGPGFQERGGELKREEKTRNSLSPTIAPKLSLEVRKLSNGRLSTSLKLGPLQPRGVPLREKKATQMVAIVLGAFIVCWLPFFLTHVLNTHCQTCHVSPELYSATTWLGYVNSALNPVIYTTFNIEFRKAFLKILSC

Emax ([1]; read-out: D2short: [^35S]GTPγS intrinsic activity) | SMILES | Ki (human D4.4 receptor) | Ki (human D3 receptor) | Ki (human D2long receptor) | melting point | Ki (5-HT2 receptor) | Emax [1, 2] | Ki (human D2short receptor) | Ki (5-HT1A receptor)
– | COc1ccccc1N1CCN(CCCCOc2cccn3nccc23)CC1 [Example E8, 4-[4-[4-(2-Methoxyphenyl)piperazin-1-yl]butoxy]pyrazolo[1,5-a]pyridine] | < 30 nM | < 30 nM | < 30 nM | 74 °C | 301 to 3000 nM | < 15% | < 30 nM | < 30 nM
– | O=Cc1cnn2cc(OCCCCN3CCN(c4cccc(Cl)c4Cl)CC3)ccc12 [Example E54, 6-[4-[4-(2,3-Dichlorophenyl)piperazin-1-yl]butoxy]pyrazolo[1,5-a]pyridine-3-carbaldehyde] | < 30 nM | < 30 nM | < 30 nM | 99 °C | 30 to 300 nM | < 15% | < 30 nM | < 30 nM
< 15% | Clc1cccc(N2CCN(CCCOCc3ccn4nccc4c3)CC2)c1Cl [Example E13, 5-[3-[4-(2,3-Dichlorophenyl)piperazin-1-yl]propoxymethyl]pyrazolo[1,5-a]pyridine] | 30 to 300 nM | < 30 nM | < 30 nM | 69 °C | 30 to 300 nM | – | < 30 nM | 30 to 300 nM
– | COc1ccccc1N1CCN(CCCCOc2cccn3ncc(C=O)c23)CC1 [Example E11, 4-[4-[4-(2-Methoxyphenyl)piperazin-1-yl]butoxy]pyrazolo[1,5-a]pyridine-3-carbaldehyde] | < 30 nM | 30 to 300 nM | < 30 nM | 139 °C | 301 to 3000 nM | < 15% | < 30 nM | < 30 nM
– | O=Cc1c(OCCCCN2CCN(c3cccc(Cl)c3Cl)CC2)nn2ccccc12 [Example E4, 2-[4-[4-(2,3-Dichlorophenyl)piperazin-1-yl]butoxy]pyrazolo[1,5-a]pyridine-3-carbaldehyde] | < 30 nM | < 30 nM | < 30 nM | 100 °C | 30 to 300 nM | 15 to 40% | < 30 nM | < 30 nM
– | O=Cc1cnn2cc(OCCCCN3CCN(c4ccccc4Cl)CC3)ccc12 [Example E56] | < 30 nM | < 30 nM | < 30 nM | 71 °C | 301 to 3000 nM | 15 to 40% | < 30 nM | < 30 nM
– | Clc1cccc(N2CCN(CCCCOc3ccn4nccc4c3)CC2)c1Cl [Example E15, 5-[4-[4-(2,3-Dichlorophenyl)piperazin-1-yl]butoxy]pyrazolo[1,5-a]pyridine] | 30 to 300 nM | < 30 nM | 30 to 300 nM | 105 °C | 301 to 3000 nM | 15 to 40% | 30 to 300 nM | 30 to 300 nM
– | COC(=O)c1cnn2ccc(OCCCCN3CCN(c4ccccc4OC)CC3)cc12 [Example E40, Methyl 5-[4-[4-(2-methoxyphenyl)piperazin-1-yl]butoxy]pyrazolo[1,5-a]pyridine-3-carboxylate] | < 30 nM | < 30 nM | < 30 nM | 75 °C | 30 to 300 nM | 15 to 40% | < 30 nM | < 30 nM
– | Clc1cccc(N2CCN(CCCCOc3cccn4nccc34)CC2)c1Cl [Example E7, 4-[4-[4-(2,3-Dichlorophenyl)piperazin-1-yl]butoxy]pyrazolo[1,5-a]pyridine] | < 30 nM | < 30 nM | < 30 nM | 91 °C | 301 to 3000 nM | < 15% | < 30 nM | 30 to 300 nM
